Experimental data reported in patent US8916572B2, “Bis-quinazoline derivatives as inhibitors for epidermal growth factor receptor (EGFR) tyrosine kinase” (Tetranov International, Inc., priority 2012, dated 2014).

Tested on: human lung adenocarcinoma epithelial cell line A549
Assay: Growth inhibition in vitro of human tumor cell line A549 (MTT assay)
Format: cell-based
Conditions: for IC50: Homo sapiens, A549 cells, MTT assay, 24 hours incubation, read-out: IC 50, tumor cell growth inhibition in human tumor cell line A549
Experimental: Growth Inhibition In Vitro of Human Tumor Cell Line A549 by Examples:
Human lung adenocarcinoma epithelial cell line A549 was obtained from American Type Culture Collection (ATCC) and maintained in Dulbecco modified eagle medium supplemented with 10% fetal bovine serum. MTT assay was performed using the MTT cell proliferation assay kit (ATCC). Briefly, 3×10^3 A549 cells/well were plated in 96 well plates overnight and then incubated with different concentrations of tested compounds or vehicle controls for 24 hours. Ten μl of MTT reagent was added to each well for 120 min. The formazan crystal was dissolved with MTT detergent, and the OD value was measured at 570 nm using a SpectraMax M3 microplate reader (Molecular Devices). Data were normalized to vehicle controls and processed using GraphPad Prism 5.00.

| IC50 | SMILES | in vitro activity compared to Erlotinib in cell line A549 (human lung adenocarcinoma epithelial cell line A549, comparison in words) |
| --- | --- | --- |
| > 80 µM | C#Cc1cccc(Nc2ncnc3cc(OCCOCCOCCOCCOc4cc5ncnc(Nc6cccc(C#C)c6)c5cc4OCCOC)c(OCCOC)cc23)c1 [dimer 1, 7,7′-((((oxybis(ethane-2,1-diyl))bis(oxy))bis(ethane-2,1-diyl))bis(oxy))bis(N-(3-ethynylphenyl)-6-(2-methoxyethoxy)quinazolin-4-amine)] | – |
| > 80 µM | C#Cc1cccc(Nc2ncnc3cc(OCCOCCOCCOCCOc4cc5c(Nc6cccc(C#C)c6)ncnc5cc4OCCOC)c(OCCOC)cc23)c1 [dimer 3, N-(3-ethynylphenyl)-6-(2-(2-(2-(2-((4-((3-ethynylphenyl)amino)-6-(2-methoxyethoxy)quinazolin-7-yl)oxy)ethoxy)ethoxy)ethoxy)ethoxy)-7-(2-methoxyethoxy)quinazolin-4-amine] | – |
| 9.9 µM | C#Cc1cccc(Nc2ncnc3cc(OCCOC)c(OCCOC)cc23)c1 [Erlotinib, reference compound] | – |
| 5.1 µM | C#Cc1cccc(Nc2ncnc3cc(OCCOC)c(OCCOCCOCCOCCOc4cc5c(Nc6cccc(C#C)c6)ncnc5cc4OCCOC)cc23)c1 [dimer 2, 6,6′-((((oxybis(ethane-2,1-diyl))bis(oxy))bis(ethane-2,1-diyl))bis(oxy))bis(N-(3-ethynylphenyl)-7-(2-methoxyethoxy)quinazolin-4-amine)] | higher activity than Erlotinib |
